Laboratory results from patent US4443468A, “Benzofuran derivatives, process for their preparation and their therapeutic applications” (Laboratoires Jacques Logeais, priority 1978, dated 1984).
Structures can show the parent of a compound that is named as a salt. Where two headings read alike, the source gives them in different places.

Experiments:
Format in all cases: in vivo
Acute toxicity in mice = conditions: mouse, in vivo, single dose
Experimental: (§1) (a) Acute toxicity in mice
(§2) Each compound was administered orally, intra-peritoneally, or intravenously as a single dose.

[1] = test system: dysrhythmia on central stimulation; test: Dysrhythmia on central stimulation in rabbits
Experimental: The anti-dysrhythmic activity of the compounds of the formula (I) was evaluated according to the following pharmacological tests: […]

[2] = test system: maximum stimulation heart rate (FMS); test: Maximum stimulation heart rate (FMS) in rabbits
Experimental: (§3) The anti-dysrhythmic activity of the compounds of the formula (I) was evaluated according to the following pharmacological tests:
maximum stimulation heart rate (FMS)
The FMS, as determined in vivo in rabbits by cardiac stimulation by means of a stimulation probe placed in the left auricular cavity, provides an overall determination of the duration of the refractory period of the conductive routes and of the fibres of the myocardium.

[3] = test system: aconitine induced dysrhythmias; test: Aconitine induced dysrhythmias in rats
Experimental: as §3
aconitine induced dysrhythmias in rats: this agent has a deeply perturbating effect on the ionic permeability of the membranes;

[4] = test system: anoxia induced dysrhythmias; test: Anoxia induced dysrhythmias in rats, after pre-treatment with a subliminal dosage of aconitine
Experimental: as §3
anoxia induced dysrhythmias in rats, after pre-treatment with a subliminal dosage of aconitine (combination of the effects of a sympathetic stimulation with those due to perturbations of ionic conductions);

[5] = test system: ouabaine induced dysrhythmias; test: Ouabaine induced dysrhythmias in guinea-pigs; conditions: 10-20 mg/kg i.v., guinea-pig
Experimental: as §3
ouabaine induced dysrhythmias in guinea-pigs: at toxic dosages, ouabaine affects transmembrane ionic exchanges; on the other hand, it induces a concomitant sympathetic activation.

mice = test: Acute toxicity in mice; conditions: single dose, behavior observed
Experimental: as §1, §2

[6] = test system: dysrhythmias induced by localized ischemia; test: Method according to Harris, in dogs (coronary ligation); conditions: 10 mg/kg i.v.
Experimental: as §3
method according to Harris, in dogs: coronary ligation and dysrhythmias induced by localized ischemia.

[7] = intravenous, read-out: LD50, i.v.
[8] = ip, intra-peritoneal, read-out: LD50, i.p.

Structure (SMILES) | LD50 (Acute toxicity in mice; [8]) [mg/kg] | LD50 (Acute toxicity in mice; oral, read-out: LD50, p.o.) [mg/kg] | Anoxia Rat ([4]; 10 mg/kg i.v.) | Remarks (acute toxicity) (mice) | other results
NC1=NCC(c2cc3ccccc3o2)C1 (stereo not shown) [Example 1, 2-Amino-4-(2-benzofuryl)Δ-1-pyrroline hydrochloride] | 58 | 115 |  |  | LD50 (Acute toxicity in mice; [7]): 46 mg/kg
CNC1=NCC(c2cc3ccccc3o2)C1 (stereo not shown) [Example 2, 2-Methylamino-4-(2-benzofuryl)Δ-1-pyrroline hydrochloride] | 58 | > 200 |  |  | Central stimulation Rabbit ([1]; 3 mg/kg i.v.): +; FMS Rabbit ([2]; 7.5 mg/kg i.v.): +; Aconitine Rat ([3]; 10 mg/kg i.v.): +
CC(C)NC1=NCC(c2cc3ccccc3o2)C1 (stereo not shown) [Example 3, 2-Isopropylamino-4-(2-benzofuryl)Δ-1-pyrroline hydrochloride] | 58 | 200 | + |  | 
CN(C)C1=NCC(c2cc3ccccc3o2)C1 (stereo not shown) [Example 4, 2-Dimethylamino-4-(2-benzofuryl)Δ-1-pyrroline hydrochloride] |  | 240 |  | convulsions | Central stimulation Rabbit ([1]; 5 mg/kg i.v.): ++; Ouabaine Cobaye [5]: +; Anoxia Rat ([4]; 10-20 mg/kg i.v.): ++; LD50 (Acute toxicity in mice; [7]): 38.5 mg/kg; FMS Rabbit ([2]; 2.5 mg/kg i.v.): +; Harris Ligation Dog [6]: +
CCN(CC)C1=NCC(c2cc3ccccc3o2)C1 (stereo not shown) [Example 5, 2-Diethylamino-4-(2-benzofuryl)Δ-1-pyrroline fumarate] | 58 | 180 |  |  | 
c1ccc(NC2=NCC(c3cc4ccccc4o3)C2)cc1 (stereo not shown) [Example 6, 2-Anilino-4-(2-benzofuryl)Δ-1-pyrroline hydrochloride] | 58 | 110 |  | Hyperesthesia | Central stimulation Rabbit ([1]; 2.5 mg/kg i.v.): +; Anoxia Rat ([4]; i.v., dose not given): 0; FMS Rabbit ([2]; 2.5 mg/kg i.v.): +
c1ccc(CCNC2=NCC(c3cc4ccccc4o3)C2)cc1 (stereo not shown) [Example 7, 2-Phenethylamino-4-(2-benzofuryl)Δ-1-pyrroline hydrochloride] | 98 | > 200 |  | Convulsions | Central stimulation Rabbit ([1]; i.v., dose not given): 0; FMS Rabbit ([2]; 2 mg/kg i.v.): +; Aconitine Rat ([3]; 5 mg/kg i.v.): +
c1ccc2oc(C3CN=C(N4CCCC4)C3)cc2c1 (stereo not shown) [Example 8, 2-Pyrrolidino-4-(2-benzofuryl)Δ-1-pyrroline hydrochloride] | 76 | 200 | + |  | Aconitine Rat ([3]; 10 mg/kg i.v.): +
c1ccc2oc(C3CN=C(N4CCOCC4)C3)cc2c1 (stereo not shown) [Example 9, 2-Morpholino-4-(2-benzofuryl)Δ-1-pyrroline hydrochloride] | 142 | > 200 |  |  | Anoxia Rat ([4]; i.v., dose not given): 0
CN1CCN(C2=NCC(c3cc4ccccc4o3)C2)CC1 (stereo not shown) [Example 10, 2-(4-Methyl-piperazino)-4-(2-benzofuryl)Δ-1-pyrroline methanesulfonate] | 142 | > 200 | + |  | 
